Some test systems named below: SNB-19 CNS; PC-3 prostate; MOLT-4 leukemia; A549 NSCLC; SW-620 colon; HS 578T breast.
Common to all, as to assay: inhibition of tumour cell growth, NCI panel, 48 h

Values joined by “and” are separate entries in the source; they are usually repeats but may differ in a detail not shown here. Equal values may be shown once.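 Five compound concentrations were applied to cells in 96-well plates for 48 hours; endpoints were derived by simple linear interpolation of the resulting dose-response curve. GI50 = concentration required for 50% inhibition of growth. TGI: concentration producing complete growth inhibition.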 Some results are limits rather than exact numbers.

In the case of `O=C(c1cccs1)c1nc2cc(Cl)ccc2[n+]([O-])c1C(F)(F)F`, the GI50 in the assay on SNB-19 CNS is greater than 100 µM; in the assay on PC-3 prostate, 71.4 µM; with MOLT-4 leukemia it was 70.1 µM; in the assay on A549 NSCLC, 54.8 µM; in the assay on SW-620 colon it was greater than 100 µM; in the assay on HS 578T breast it was greater than 100 µM. Moreover, the TGI in the assay on SNB-19 CNS, in the assay on PC-3 prostate, in the assay with MOLT-4 leukemia, with A549 NSCLC, in the assay on SW-620 colon and in the assay with HS 578T breast was greater than 100 µM throughout.
Regarding `COc1ncc(-c2ccc3nccc(C#CCN4CCN(S(C)(=O)=O)CC4)c3c2)cc1NS(=O)(=O)c1ccc(F)cc1F`, the GI50 was 0.299 µM in the assay with SNB-19 CNS; 0.058 µM with PC-3 prostate; 0.0391 µM in the assay with MOLT-4 leukemia; 0.083 µM in the assay with A549 NSCLC; 0.205 µM with SW-620 colon. In addition, the TGI worked out at 2.11 µM with SNB-19 CNS; 10.9 µM in the assay with PC-3 prostate; 2.29 µM with MOLT-4 leukemia; 7.68 µM in the assay with A549 NSCLC; 2.23 µM in the assay on SW-620 colon.
As for `C=C(CN1CCN(c2ccccc2C(F)(F)F)CC1)c1ccc(C(=O)Nc2ccccc2N)cc1`, the GI50 in the assay with SNB-19 CNS was 24.4 µM; with PC-3 prostate, 1.91 µM; in the assay on MOLT-4 leukemia, 0.125 µM; with A549 NSCLC, 4.17 µM; with SW-620 colon, 3.4 µM; with HS 578T breast, 12.8 µM. For the same molecule, the TGI is greater than 100 µM in the assay on SNB-19 CNS; 12 µM in the assay on PC-3 prostate; 2.55 µM in the assay with MOLT-4 leukemia; 33.8 µM with A549 NSCLC; greater than 65.9 µM in the assay on SW-620 colon; greater than 100 µM in the assay on HS 578T breast.
Take `COC(=O)[C@@H](C)C[C@H](Cc1ccccc1)NC(=O)c1csc([C@@H](C[C@H](C(C)C)N(C)C(=O)C2(NC(=O)[C@H]3CCCCN3C)CCC2)OC(C)=O)n1`: the GI50 in the assay on SNB-19 CNS is 0.00708 µM; in the assay on PC-3 prostate, 0.00406 µM and 0.0025 µM; in the assay with MOLT-4 leukemia, 0.0107 µM and 0.00714 µM; with A549 NSCLC it was 0.0564 µM and 0.0136 µM; with SW-620 colon, 0.00513 µM and 0.0025 µM; in the assay on HS 578T breast, 0.0463 µM. The TGI in the assay with PC-3 prostate, in the assay with MOLT-4 leukemia, with A549 NSCLC and in the assay on SW-620 colon was greater than 25 µM in each case.
Consider `C/C(=N\O)c1cccc(Nc2cc(-c3ccccc3)nc3c(O)cccc23)c1`, for which the GI50 in the assay with SNB-19 CNS is 1.13 µM; in the assay on PC-3 prostate, 1.94 µM; in the assay with A549 NSCLC, 2.37 µM; in the assay with SW-620 colon it was 0.751 µM; in the assay with HS 578T breast, 4.34 µM. Besides, the TGI was 9.42 µM in the assay with SNB-19 CNS; 19.9 µM in the assay on PC-3 prostate; 23.5 µM in the assay on A549 NSCLC; greater than 42.9 µM in the assay on SW-620 colon; greater than 60 µM in the assay on HS 578T breast.
Turning to `O=C(Nc1ccc(I)cc1)c1cccc([N+](=O)[O-])c1O`, the GI50 was 3.68 µM in the assay with SNB-19 CNS; 2.72 µM with PC-3 prostate; 3.38 µM in the assay on MOLT-4 leukemia; 4.52 µM with A549 NSCLC; 4.44 µM in the assay on SW-620 colon; 4.13 µM in the assay with HS 578T breast. In addition, the TGI in the assay on SNB-19 CNS is greater than 100 µM; in the assay on PC-3 prostate it was 14.6 µM; in the assay with MOLT-4 leukemia, 92.3 µM; in the assay with A549 NSCLC, greater than 100 µM; in the assay on SW-620 colon, greater than 100 µM; in the assay with HS 578T breast, 87.7 µM.
Regarding `C=C1C(=O)OC2CC1C(OC(C)=O)C/C(C)=C/CC/C(C)=C\CCC2(C)O` (stereo unspecified), the TGI in the assay on SNB-19 CNS is 40.1 µM and 32 µM; in the assay with PC-3 prostate it was 19.6 µM and > 100 µM; with MOLT-4 leukemia, 6.23 µM and 7.81 µM; with A549 NSCLC, 33.2 µM and 51.1 µM; in the assay on SW-620 colon, 12.6 µM and 8.91 µM; in the assay on HS 578T breast, 25.1 µM and 26.2 µM. In the assay with PC-3 prostate, the GI50 is 6.08 µM and 19.9 µM.
Turning to `O=Cc1ccc(-c2ccc(-c3ccc(C=O)o3)[se]2)o1`, the GI50 in the assay with SNB-19 CNS, with PC-3 prostate, in the assay on MOLT-4 leukemia, in the assay with A549 NSCLC, in the assay with SW-620 colon and in the assay with HS 578T breast was greater than 100 µM in each case. Further, the TGI with SNB-19 CNS, in the assay on PC-3 prostate, in the assay with MOLT-4 leukemia, with A549 NSCLC, with SW-620 colon and in the assay with HS 578T breast was greater than 100 µM throughout.
With `O=C1C=CC(=O)N1c1ccc(I)cc1`, the TGI in the assay with SNB-19 CNS is greater than 61.5 µM; in the assay with PC-3 prostate, 40.7 µM; in the assay on MOLT-4 leukemia it was 7.49 µM; in the assay on A549 NSCLC, 47 µM; with SW-620 colon, 49.3 µM; with HS 578T breast it was 66.3 µM.
Take `FC(F)(F)c1ccc(-c2ncc(-c3ccc(C(F)(F)F)cc3)c(NCc3cc(C(F)(F)F)cc(C(F)(F)F)c3)n2)cc1`: the GI50 was 3.49 µM with SNB-19 CNS; 3.09 µM in the assay on PC-3 prostate; 4.35 µM in the assay on MOLT-4 leukemia; 4.05 µM with A549 NSCLC; 3.95 µM in the assay with SW-620 colon; 2.83 µM in the assay with HS 578T breast. Moreover, the TGI is greater than 100 µM in the assay with SNB-19 CNS; 18.3 µM in the assay on PC-3 prostate; 71.8 µM with MOLT-4 leukemia; greater than 100 µM in the assay with A549 NSCLC; greater than 100 µM in the assay with SW-620 colon; 27.4 µM in the assay on HS 578T breast.
In the case of `O=C(O)c1ccc(Oc2nc3ccccc3s2)cc1`, the TGI in the assay on SNB-19 CNS, in the assay with PC-3 prostate, in the assay with MOLT-4 leukemia, in the assay on A549 NSCLC, with SW-620 colon and in the assay on HS 578T breast was greater than 100 µM each time.
Turning to `COc1cc(/C=C/C(=O)c2c(C)nc3ccccc3c2C)ccc1OCCCCOc1cc2c(cc1OC)C(=O)N1CCC[C@H]1C=N2`, the GI50 in the assay on SNB-19 CNS is 0.872 µM; in the assay on PC-3 prostate, 0.296 µM; in the assay with MOLT-4 leukemia, 0.325 µM; with A549 NSCLC, 0.46 µM; in the assay with SW-620 colon, 0.203 µM; in the assay on HS 578T breast it was 0.229 µM. For the same molecule, the TGI in the assay on SNB-19 CNS amounted to 2.57 µM; with PC-3 prostate, 1.35 µM; in the assay with MOLT-4 leukemia, 1.12 µM; in the assay on A549 NSCLC, 4.17 µM; with SW-620 colon, 0.538 µM; in the assay with HS 578T breast, 0.624 µM.
For the molecule `c1ccc(-c2cn(-c3ccccc3)c(-c3ccccc3)n2)cc1`, the GI50 with SNB-19 CNS is 11.5 µM; in the assay with PC-3 prostate, 17.1 µM; in the assay with MOLT-4 leukemia, 3.16 µM; in the assay on A549 NSCLC, 13.2 µM; in the assay on SW-620 colon it was 1.95 µM. Further, the TGI with SNB-19 CNS is 23.9 µM; with PC-3 prostate, 45.6 µM; with MOLT-4 leukemia it was greater than 100 µM; with A549 NSCLC it was 26.6 µM; in the assay on SW-620 colon, 3.83 µM.

Values taken from PubChem BioAssay (NCI).
